Test results from patent publication US5776944A, “7-(4-aminomethyl-3-methyloxyiminopyrroplidin-1-yl)-1-cyclopropyl-6-flu oro-4-oxo-1,4-dihydro-1,8-naphthyridine-3-carboxylic acid and the process for the preparation thereof” (LG Chemical Ltd., priority 1994, dated 1998).
Where two headings read alike, the source gives them in different places.

What was measured:
[1] = Antibacterial activity of methanesulfonate and its hydrate; assay type: cell-based
Seratis marsecence 1826E = assay: In vitro antibacterial activity (MIC, agar medium dilution), Biological Example 4; assay type: cell-based; details: 18 h, Table 32, ratio of weight, read-out: Minimum Inhibitory Concentration: MIC
Method: (§1) In order to determine the antibacterial activitiers of the E- and Z-isomner of the compound 180 which were separated in Example 203, and of 7- (4-aminomethyl-3-methyloxylminopyrrolidin-1-yl)-1-cyclopropyl-6-fluoro-4-oxo-1,4-dihydro-1,8-naphthyridine-3-carboxylic acid methanesulfonate prepared in Example 204, in vitro antibacterial activities of them were measured using agar medium dilution method. The results were as described in the following Tables 31 and 32.

[2] = assay type: physicochemical
[3] = test system: Escherichia coli TEM5 3739E; assay: In vitro antibacterial activity (MIC, agar medium dilution), Biological Example 4; assay type: cell-based; details: TEM53739E, 18 h, read-out: Minimum Inhibitory Concentration: MIC
physchem = details: phosphate buffered solution
Proteus vulgaris 6059 = assay: In vitro antibacterial activity (MIC, agar medium dilution), Biological Example 4; assay type: cell-based; details: 18 h; Proteus vulgaris 6059, Table 32, ratio of weight; read-out: Minimum Inhibitory Concentration: MIC
[4] = test system: Citrobacter diversus 2046E; assay: as above; assay type: cell-based; details: Citrobacter koseri, 18 h, Table 32, ratio of weight, read-out: Minimum Inhibitory Concentration: MIC
[5] = test system: Escherichia coli TEM3 3455E; assay: as above; assay type: cell-based; details: TEM33455E, 18 h, read-out: Minimum Inhibitory Concentration: MIC, Escherichia coli TEM3 3455E, Table 32, ratio of weight
[6] = test system: Staphylococcus aureus 241; assay: as above; assay type: cell-based; details: Staphylococcus aureus, 241, 18 h, Staphylococcus aureus 241, Table 32, ratio of weight; read-out: Minimum Inhibitory Concentration: MIC
[7] = test system: Staphylococcus aureus giorgio; assay: as above; assay type: cell-based; details: 18 h, Table 32, ratio of weight, read-out: Minimum Inhibitory Concentration: MIC
Bacillus subtilis 6633 = assay: as above; assay type: cell-based; details: 18 h; Bacillus subtilis 6633, Table 32, ratio of weight; read-out: Minimum Inhibitory Concentration: MIC
Staphylococcus aureus 77 = assay: as above; assay type: cell-based; details: 18 h; Staphylococcus aureus 77, Table 32, ratio of weight; read-out: Minimum Inhibitory Concentration: MIC
[8] = test system: Staphylococcus aureus 6538p; assay: as above; assay type: cell-based; details: 18 h, Table 32, ratio of weight without considering molecular weight, read-out: Minimum Inhibitory Concentration: MIC
[9] = test system: Acinetobacter calcoaceticus 15473; assay: as above; assay type: cell-based; details: 18 h; Acinetobacter calcoaceticus 15473, Table 32, ratio of weight; read-out: Minimum Inhibitory Concentration: MIC
Micrococcus luteus 9341 = assay: as above; assay type: cell-based; details: 18 h; Micrococcus luteus 9341, Table 32, ratio of weight; read-out: Minimum Inhibitory Concentration: MIC
[10] = test system: Pseudomonas aeruginosa 1912E; assay: In vitro antibacterial activity (MIC, agar medium dilution), Biological Example 4; assay type: cell-based; details: 18 h, Table 32, ratio of weight, read-out: Minimum Inhibitory Concentration: MIC
[11] = test system: Klebsiella aerogenes 1082E; assay: as above; assay type: cell-based; details: 18 h, Table 32, ratio of weight, read-out: Minimum Inhibitory Concentration: MIC
[12] = test system: Streptococcus faecalis 29212; assay: as above; assay type: cell-based; details: Enterococcus faecalis, 29212, 18 h, Streptococcus faecalis 29212, Table 32, ratio of weight; read-out: Minimum Inhibitory Concentration: MIC
[13] = test system: Enterobacter cloacae 1194E; assay: microbe, parasite or virus in culture; assay type: cell-based; details: 18 h, read-out: Minimum Inhibitory Concentration: MIC
[14] = test system: Escherichia coli TEM9 2639E; assay: In vitro antibacterial activity (MIC, agar medium dilution), Biological Example 4; assay type: cell-based; details: TEM92639E, 18 h, read-out: Minimum Inhibitory Concentration: MIC
[15] = test system: Staphylococcus epidermidis 887E; assay: as above; assay type: cell-based; details: 18 h, read-out: Minimum Inhibitory Concentration: MIC, Staphylococcus epidermidis 887E, Table 32, ratio of weight
[16] = test system: Pseudomonas aeruginosa 10145; assay: as above; assay type: cell-based; details: Pseudomonas aeruginosa, 10145, 18 h, Pseudomonas aeruginosa 10145, Table 32, ratio of weight; read-out: Minimum Inhibitory Concentration: MIC
Escherichia coli 3190Y = assay: as above; assay type: cell-based; details: 18 h, Table 32, ratio of weight, read-out: Minimum Inhibitory Concentration: MIC
[17] = test system: Salmonella thypimurium 14028; assay: as above; assay type: cell-based; details: 18 h; Salmonella thypimurium 14028, Table 32, ratio of weight; read-out: Minimum Inhibitory Concentration: MIC
Enterobacter cloacae P99 = assay: microbe, parasite or virus in culture; assay type: cell-based; details: P99, 18 h, read-out: Minimum Inhibitory Concentration: MIC
[18] = test system: Klebsiella aerogenes 1976E; assay: In vitro antibacterial activity (MIC, agar medium dilution), Biological Example 4; assay type: cell-based; details: 18 h, Table 32, ratio of weight, read-out: Minimum Inhibitory Concentration: MIC
test strains = assay: In vitro antibacterial activity, overall finding, Biological Example 4; assay type: cell-based; details: Tables 31 and 32
Method: as §1

Escherichia coli 851E = assay: In vitro antibacterial activity (MIC, agar medium dilution), Biological Example 4; assay type: cell-based; details: 18 h, Table 32, ratio of weight, read-out: Minimum Inhibitory Concentration: MIC
Escherichia coli 10536 = assay: as above; assay type: cell-based; details: Escherichia coli, 10536, 18 h, read-out: Minimum Inhibitory Concentration: MIC, Escherichia coli 10536, Table 32, ratio of weight
[19] = test system: Staphylococcus epidermidis 178; assay: as above; assay type: cell-based; details: 18 h; Staphylococcus epidermidis 178, Table 32, ratio of weight; read-out: Minimum Inhibitory Concentration: MIC

CON=C1CN(c2nc3c(cc2F)c(=O)c(C(=O)O)cn3C2CC2)CC1CN.CS(=O)(=O)O (centres unmarked) [Methanesulfonate, 7-(4-aminomethyl-3-methyloxyiminopyrrolidin-1-yl)-1-cyclopropyl-6-fluoro-4-oxo-1,4-dihydro-1,8-naphthyridine-3-carboxylic acid methanesulfonate]
antibacterial activity compared with the free form [1]: the same potent antibacterial activity as the free form | MIC (Seratis marsecence 1826E): 0.13 µg/mL | solubility [2]: excellent solubility | MIC [3]: 0.13 µg/mL | solubility (physchem; pH 2, Water Solubility, phosphate buffered solution (pH 2)): > 20 mg/mL | solubility (physchem; pH 7, Water Solubility, phosphate buffered solution (pH 7)): > 30 mg/mL | MIC (Proteus vulgaris 6059): 0.25 µg/mL | MIC [4]: 0.031 µg/mL | MIC [5]: 0.25 µg/mL | MIC [6]: 4 µg/mL | MIC [7]: 0.016 µg/mL | MIC (Bacillus subtilis 6633): 0.016 µg/mL | MIC (Staphylococcus aureus 77): 0.031 µg/mL | MIC [8]: 0.016 µg/mL | MIC [9]: 0.031 µg/mL | MIC (Micrococcus luteus 9341): 0.13 µg/mL | water solubility compared with other salts and free form: superior to that of the tartarate, the sulfurate, and the p-toluenesulfonate as well as the free form | MIC [10]: 0.25 µg/mL | MIC [11]: 0.031 µg/mL | MIC [12]: 0.13 µg/mL | MIC [13]: 0.031 µg/mL | MIC [14]: 0.031 µg/mL | MIC [15]: 0.016 µg/mL | MIC [16]: 0.5 µg/mL | MIC (Escherichia coli 3190Y): 0.008 µg/mL | MIC [17]: 0.031 µg/mL | MIC (Enterobacter cloacae P99): 0.016 µg/mL | MIC [18]: 0.13 µg/mL | antibacterial activity (test strains): excellent antibacterial activity | MIC (Escherichia coli 851E): 0.016 µg/mL | MIC (Escherichia coli 10536): 0.008 µg/mL | MIC [19]: 4 µg/mL
